Laboratory results taken from US8093383B2, “P70 S6 kinase inhibitors” (Eli Lilly and Company, priority 2007, dated 2012).
Where a name gives a salt, the structure may show the parent alone. Read-outs that look alike come from different tables or passages of the source. Marks after values point to notes of the source that are not given here.

Experiments:
Rat 13762 = assay: Cell assay (Alamar Blue, 72 hours) Rat 13762; assay type: cell-based
Description: (§1) Cells are maintained, then typsinized and suspended in Dulbecco's modified Eagle's medium (DMEM_containing 10% fetal bovine serum (FBS), 25 mM 4-(2-hydroxyethyl)-1-piperazineethanesulfonic acid (HEPES), 1.0 mM Sodium Pyruvate and 0.1 mM Non Essential Amino Acids (NEAA). 1×10^3 HCT116 and 2×10^3 Cells may be seeded in 50 μL in 96 well plates and incubated in 5% CO2 at 37° C. overnight. Compounds are prepared at desired starting concentrations and serial diluted in DMSO. 4 μL of diluted compounds are transferred in 1 mL 10% FBS DMEM to make up 2× concentrations as added 50 μL to the 50 μL in the presence of cells for dosing. The plates are incubated at 37° C. in 5% CO2 for 72 hours. At the end of incubation period, 10 μL Alamar Blue is added and after 2 hours reaction the measurement is determined in CytoFluor at 530 nm excitation, 580 nm emission and Gain 45. The following compounds were tested in the following cell lines essentially as described above.

Oral bioavailability = assay type: in vivo; details: rat, plasma; Sprague Dawley rats, 1 mg/kg (IV) or 10 mg/kg (oral gavage)
Description: The bioavailability of compounds of the present invention may be measured by methods known to the skilled artisan. For example a compound of Formula I is administered to Sprague Dawley rats at doses of 1 mg/kg (IV) or 10 mg/kg (oral gavage) in a conventional formulation. An oral formulation may include a suspension (0.25% PS80, 1% HEC, 0.05% Antifoam in water) using milled compound of Formula I. Plasma samples are obtained and concentrations of the compound of Formula I are measured. The compound of Example 57 was evaluated in a method substantially similar to that described above and found to have an oral bioavailability of >100%.

A549 = assay: Cell assay (Alamar Blue, 72 hours) A549; assay type: cell-based; details: Homo sapiens
Description: as §1

K562 = assay: Cell assay (Alamar Blue, 72 hours) K562; assay type: cell-based; details: Homo sapiens
Description: as §1

A2780 = assay: Cell assay (Alamar Blue, 72 hours) A2780; assay type: cell-based; details: Homo sapiens
Description: as §1

PANC-1 = assay: Cell assay (Alamar Blue, 72 hours) PANC-1; assay type: cell-based; details: Homo sapiens
Description: as §1

PC3 = assay: Cell assay (Alamar Blue, 72 hours) PC3; assay type: cell-based; details: Homo sapiens, PC-3
Description: as §1

NCI-H460 = assay: Cell assay (Alamar Blue, 72 hours) NCI-H460; assay type: cell-based; details: Homo sapiens
Description: as §1

P70 S6 kinase (T412E) = target: T1, P70 S6 kinase (T412E) (Homo sapiens, UniProt P23443, T412E); assay: Inhibition of p70S6 Kinase; assay type: biochemical; details: 25 μM ATP, 5 nM enzyme, relative IC50
T1 construct: purchased Upstate USA, Inc. (Charlottesville, Va.)
Description: P70 S6 kinase (T412E) from Upstate USA, Inc. (Charlottesville, Va.) is preincubated with 10 concentrations of compound in a 15 μL volume for 30 min at room temperature in 96-well plates. PKA, PKC, MAPKAP-K1 Substrate from AnaSpec (San Jose, Calif.) and gamma ^33P-ATP from PerkinElmer (Waltham, Mass.) is added to initiate the reaction which is allowed to proceed for 60 minutes at room temperature in a final 25 μL volume under the following conditions: 10 mM HEPES pH 7.5, 10 mM MgCl2, 1.0 mM DTT, 0.082 mM EGTA, 0.005% TRITON X-100™, 25 μM, 25 μM ATP, 40 μCi/mL, 4 μM substrate, and 5 nM enzyme. Reactions are terminated with 75 μL 10% H3PO4 and 85 μL of quenched reaction mix is transferred to a phosphocellulose filter plate (Millipore #MAPHN0B50) and washed with 0.5% H3PO4 using a vacuum manifold. 100 μL of Microscint 20 (Packard #60113621) is added to each well and plates with liner are counted using a Wallac Beta Counter. Relative IC50 values are calculated by non-linear four parameter fitting.

U87MG = assay: Cell assay (Alamar Blue, 72 hours) U87MG; assay type: cell-based; details: Homo sapiens, U-87 MG
Description: as §1

p70 S6K = target: T2, p70 S6K (Homo sapiens, UniProt P23443); assay: Determination of p70 S6K In Vivo Target Inhibition (HCT 116); design: species or system athymic nude mice; details: HCT 116 xenograft, PO; potency based on plasma exposure; phosphorylation of S6RP serine 240/244
T2 construct: endogenous in cells; host or cells: HCT 116 human colon carcinoma xenograft tumours in athymic nude mice
Description: HCT 116 human colon carcinoma cells* (5×10^6) are subcutaneously implanted into the flank of athymic nude mice in 0.2 mL of matrigel. Two weeks post-implantation, mice are dosed PO according to a time course, single dose/single time point, or dose response protocol for the determination of TMED50 (threshold minimum effective dose). Tumors are flash frozen at harvest and blood is collected for the determination of parent compound plasma exposure and the calculation of TMEC50 (threshold minimum effective concentration) in the case of dose response studies. Tumors or tissues are homogenized in XY Lysis buffer (10 μg/mL Leupeptin, 10 μg/mL Trypsin-Chymotrypsin Inhibitor, 10 μg/mL Tosyl phenylalanyl chloromethyl ketone (TPCK), 10 μg/mL Aprotinin, 60 mM Beta-Glycerol Phosphate, 1% Triton X100, 25 mM Tris pH 7.5, 2.5 mM Pyrophosphate, 150 mM NaCl, 2 mM p-tosyl-L-arginine methyl ester (TAME), 15 mM para-nitrophenyl phosphate (pNPP), 5 mM Benzamidine, 1 mM Na Vanadate, 10 mM NaF, 50 μg/mL phenylmethane sulofnyl fluoride (PMSF), 1 mM DTT, 15 mM EDTA pH 8.0, 5 mM EGTA pH 8.0, 1 μM Microcystin, 1 μM Okadaic Acid, and 1 Roche Complete protease inhibitor mini-tablet per 10 mL) using Lysing Matrix A tubes (MP Biomedicals, Solon, Ohio, cat# 6910-500) and a BIO101 Thermo Savant Fast Prep FP12. Lysates are aliquoted and either assayed immediately or stored at −80° C. for later testing. In Vivo Target Inhibition of p70 S6K is measured utilizing Meso Scale Discovery (Gaithersburg, Md.) ELISA technology to assess effects of the compound on phosphorylation of the serine 240/244 site of the downstream effector S6RP. Phosphorylation of p70 S6K(T389) and Akt(S473) is also assessed using this technology in a multiplex format. In summary, 20 μg of lysate is added to a carbon electrode 96-well plate pre-spotted with the appropriate capture antibodies. The protein of interest is probed using a ruthenium labeled detection antibody. Upon the passage of current over the electrode in the presence of read buffer containing the co-reactant TPA, electro-chemiluminescence results in the generation of light which is quantified and recorded using the MSD Sector 6000 instrument. For each study, percent inhibitions are calculated relative to the vehicle control group and ANOVA analysis is performed using the JMP software package for the determination of statistical significance. The following compounds were tested essentially as described above and have the following potencies based on plasma exposure.

[1] = test system: HCT 116 human colon carcinoma cells; assay: Determination of p70 S6K In Vivo Efficacy (HCT 116 xenograft tumor growth); design: species or system athymic nude mice
Description: HCT 116 human colon carcinoma cells (5×10^6) are subcutaneously implanted into the flank of athymic nude mice in 0.2 mL of matrigel. One week post-implantation, mice are dosed PO according to the pharmacokinetics and the pharmacodynamics of the molecule to maintain 30-50% or 60-90% pS6 Inhibition over a 24 hr period. Dosing is continued for at least 21 days. Tumor volumes are measured bi-weekly to evaluate drug related tumor growth reduction utilizing standard methods. At the end of the study, tumors are flash-frozen at harvest and blood is collected for the determination of parent compound plasma exposure. The compound of Example 5 was tested essentially as described above.

[2] = test system: HUVEC / neo NHDF co-culture cord formation; assay: Angiogenesis Cord Formation Assay; assay type: cell-based; details: Homo sapiens, 288 h
Description: Human neonatal dermal fibroblast cells (neo NHDF) are seeded into Parkard 96 well plate on the first day, and incubated in the 37° C. and 5% CO2 incubator. Human umbilical vein endothelial cells (HUVEC) are then plated on the top of neo NHDF cells. Starting the third day, the co-culture is treated with eight-dose series of the test compound (starting with 20 μM, 1:3 serial dilution) in the presence of 20 ng/mL vascular endothelial growth factor (VEGF). The compound and VEGF are replenished every two to three days. The assay is conducted over a 12 day period. Cells are fixed by cold 70% ethanol for 30 minutes on the 12th day and processed for anti human CD31 immunofluorescence. Cultures are incubated with mouse anti human CD31 antibody and then stained by goat anti mouse alexa 488 secondary antibody. Cells are also stained by Hoechst to visualize the nucleus. After the staining, the cord formation is captured and quantified using Cellomics Arrayscan® VTI high content image analysis platform adopting the tube formation BioApplication. Two parameters, the cord area and angiogenesis index, are used to calculate the relative potency of the test compound in this angiogenesis assay. The compounds of Examples 5 and 10 were tested and analyzed essentially as described above.

T2 sequence (P23443 whole entry): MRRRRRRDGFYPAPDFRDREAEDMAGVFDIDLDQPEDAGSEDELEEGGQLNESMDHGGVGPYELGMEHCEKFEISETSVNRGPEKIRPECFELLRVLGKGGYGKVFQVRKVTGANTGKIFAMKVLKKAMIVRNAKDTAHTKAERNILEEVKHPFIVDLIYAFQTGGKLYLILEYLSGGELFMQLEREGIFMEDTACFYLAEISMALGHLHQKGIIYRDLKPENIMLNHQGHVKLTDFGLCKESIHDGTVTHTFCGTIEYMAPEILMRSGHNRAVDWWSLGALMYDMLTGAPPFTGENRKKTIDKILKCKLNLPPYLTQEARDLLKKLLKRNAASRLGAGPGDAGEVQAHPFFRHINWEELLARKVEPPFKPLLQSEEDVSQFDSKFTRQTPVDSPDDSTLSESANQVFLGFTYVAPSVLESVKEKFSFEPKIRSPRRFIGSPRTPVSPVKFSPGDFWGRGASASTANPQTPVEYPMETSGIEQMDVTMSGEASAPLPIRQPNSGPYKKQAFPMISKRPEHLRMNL
T1 sequence (P23443 whole entry T412E): as the sequence (P23443 whole entry) above, with T412E counted along it

Cc1ccc(S(=O)(=O)O)cc1.Cn1cc(-c2ccc(F)c(C(F)(F)F)c2)nc1C1CCN(c2ncnc3[nH]ncc23)CC1 [Example 57, 4-{4-[4-(4-Fluoro-3-trifluoromethyl-phenyl)-1-methyl-1H-imidazol-2-yl]-piperidin-1-yl}-1H-pyrazolo[3,4-d]pyrimidine p-toluenesulfonate]
IC50 (Rat 13762): 51.6 µM
bioavailability (Oral bioavailability): > 100%
IC50 (A549): 10.3 µM
IC50 (K562): 16.5 µM
IC50 (A2780): 25.1 µM
IC50 (PANC-1): 30.2 µM
IC50 (PC3): 31.9 µM
IC50 (NCI-H460): 24 µM
IC50 (P70 S6 kinase (T412E)): 0.0127 µM
IC50 (U87MG): 27.5 µM

Cl.FC(F)(F)c1cccc(-c2c[nH]c(C3CCN(c4ncnc5[nH]ncc45)CC3)n2)c1 [Example 5, 4-{4-[4-(3-(Trifluoromethyl)-phenyl)-1H-imidazol-2-yl]-piperidin-1-yl}-1H-pyrazolo[3,4-d]pyrimidine hydrochloride]
IC50 (p70 S6K): 7.3 µM
IC50 (A549): 22 µM
melting point: 306 °C
Tumor Volume ([1]; 30 mg/kg PO (BID × 21), Day 8, mean of 10 animals): 36.5 mm^3
Tumor Volume ([1]; 30 mg/kg PO (BID × 21), Day 13, mean of 10 animals): 58.7 mm^3
Tumor Volume ([1]; 30 mg/kg PO (BID × 21), Day 16, mean of 10 animals): 90.9 mm^3
Tumor Volume ([1]; 30 mg/kg PO (BID × 21), Day 20, mean of 10 animals): 134.6 mm^3
Tumor Volume ([1]; 30 mg/kg PO (BID × 21), Day 23, mean of 10 animals): 192.7 mm^3
Tumor Volume ([1]; 30 mg/kg PO (BID × 21), Day 27, mean of 10 animals): 296.3 mm^3
Tumor Volume ([1]; 60 mg/kg PO (BID × 21), Day 8, mean of 10 animals ± standard deviation): 28.8 ± 2.6^b mm^3
Tumor Volume ([1]; 60 mg/kg PO (BID × 21), Day 13, mean of 10 animals ± standard deviation): 42.1 ± 6.2*** mm^3
Tumor Volume ([1]; 60 mg/kg PO (BID × 21), Day 16, mean of 10 animals ± standard deviation): 72.1 ± 11.8*** mm^3
Tumor Volume ([1]; 60 mg/kg PO (BID × 21), Day 20, mean of 10 animals ± standard deviation): 139.0 ± 26.4*** mm^3
Tumor Volume ([1]; 60 mg/kg PO (BID × 21), Day 23, mean of 10 animals ± standard deviation): 188.4 ± 25.9*** mm^3
Tumor Volume ([1]; 60 mg/kg PO (BID × 21), Day 27, mean of 10 animals ± standard deviation): 280.0 ± 36.1*** mm^3
Tumor Volume ([1]; 60 mg/kg PO (QD × 21), Day 8, mean of 10 animals ± standard deviation): 30.6 ± 3.4^b mm^3
Tumor Volume ([1]; 60 mg/kg PO (QD × 21), Day 13, mean of 10 animals ± standard deviation): 57.8 ± 10.7** mm^3
Tumor Volume ([1]; 60 mg/kg PO (QD × 21), Day 16, mean of 10 animals ± standard deviation): 85.0 ± 13.3*** mm^3
Tumor Volume ([1]; 60 mg/kg PO (QD × 21), Day 20, mean of 10 animals ± standard deviation): 142.5 ± 18.4*** mm^3
Tumor Volume ([1]; 60 mg/kg PO (QD × 21), Day 23, mean of 10 animals ± standard deviation): 194.5 ± 25.7*** mm^3
Tumor Volume ([1]; 60 mg/kg PO (QD × 21), Day 27, mean of 10 animals ± standard deviation): 252.7 ± 34.4*** mm^3
IC50 (P70 S6 kinase (T412E)): 0.0294 µM
IC50 (U87MG): 14.6 µM
IC50 ([2]; 20 ng/mL VEGF, 12 day, cord area and angiogenesis index, read-out: IC50): 2.92 µM

Fc1ccc(-c2cnc(C3CCN(c4ncnc5[nH]cnc45)CC3)[nH]2)cc1C(F)(F)F [Example 8, 6-{4-[5-(4-Fluoro-3-trifluoromethyl-phenyl)-1H-imidazol-2-yl]-piperidin-1-yl}-9H-purine hydrochloride]
IC50 (p70 S6K): 47.7 µM
IC50 (P70 S6 kinase (T412E)): 0.00758 µM

Cn1cc(-c2ccc(F)c(C(F)(F)F)c2)nc1C1CCN(c2ncnc3[nH]ncc23)CC1 [Example 10, 4-{4-[4-(4-Fluoro-3-trifluoromethyl-phenyl)-1-methyl-1H-imidazol-2-yl]-piperidin-1-yl}-1H-pyrazolo[3,4-d]pyrimidine hydrochloride]
IC50 (p70 S6K): 1.97 µM
IC50 (P70 S6 kinase (T412E)): 0.00379 µM
IC50 [2]: 4.78 µM

Fc1ccc(-c2c[nH]c(C3CCN(c4ncnc5[nH]ccc45)CC3)n2)cc1C(F)(F)F [Example 7, 4-{4-[4-(4-Fluoro-3-trifluoromethyl-phenyl)-1H-imidazol-2-yl]-piperidin-1-yl}-7H-pyrrolo[2,3-d]pyrimidine hydrochloride]
IC50 (p70 S6K): 1.92 µM
IC50 (P70 S6 kinase (T412E)): 0.0103 µM
